In ChEMBL document CHEMBL3045262, “Synthesis and Insecticidal Activity of Novel 1-Benzoyl-3-phenylurea Derivatives with Polyfluoroethylsulfenyl, -sulfonyl, and-sulfinyl Substituents” (1992):

Experiments:
Format in all cases: functional
Spodoptera litura [1] = experiment: Larvicidal activity against third-instar larvae of Spodoptera litura infested in soybean seedling assessed as mortality at 2 ppm sprayed 1 day prior to infestation measured after 5 days
Spodoptera litura [2] = experiment: Larvicidal activity against third-instar larvae of Spodoptera litura infested in soybean seedling assessed as mortality at 2 ppm sprayed 6 days prior to infestation measured after 5 days
Plutella xylostella [3] = experiment: Larvicidal activity against second-instar larvae of Plutella xylostella (diamondback moth) infested raddish seedling assessed as mortality at 3.3 ppm sprayed 2 hr prior to infestation measured after 4 days
Adoxophyes orana [4] = experiment: Larvicidal activity against second-instar larvae of Adoxophyes orana infested soybean seedling assessed as mortality at 5 ppm measured after 7 days; conditions: 168 h
Adoxophyes orana [5] = experiment: Larvicidal activity against second-instar larvae of Adoxophyes orana infested soybean seedling assessed as mortality at 20 ppm measured after 7 days; conditions: 168 h
Plutella xylostella [6] = experiment: Larvicidal activity against second-instar larvae of Plutella xylostella (diamondback moth) infested raddish seedling assessed as mortality at 50 ppm sprayed 2 hr prior to infestation measured after 4 days

With `O=C(NC(=O)c1c(F)cccc1F)Nc1ccc(SC(F)(F)C(F)F)cc1` the mortality at 2 ppm (Spodoptera litura [1]) was 55%, the mortality at 2 ppm (Spodoptera litura [2]) was 20% and the mortality at 3.3 ppm (Plutella xylostella [3]) was 100%. The mortality at 5 ppm (Adoxophyes orana [4]) was 5%.
Work on `O=C(NC(=O)c1c(F)cccc1F)Nc1ccc(SC(F)(F)C(F)F)cc1F` yielded a mortality at 2 ppm (Spodoptera litura [1]) of 100%, a mortality at 2 ppm (Spodoptera litura [2]) of 100% and a mortality at 3.3 ppm (Plutella xylostella [3]) of 100%. The mortality at 5 ppm (Adoxophyes orana [4]) was 80%.
With `O=C(NC(=O)c1c(F)cccc1F)Nc1ccc([S+]([O-])C(F)(F)C(F)F)cc1F` (stereo not drawn) the mortality at 2 ppm (Spodoptera litura [1]) was 100%, the mortality at 2 ppm (Spodoptera litura [2]) was 95% and the mortality at 3.3 ppm (Plutella xylostella [3]) was 100%. The mortality at 5 ppm (Adoxophyes orana [4]) was 100%.
Work on `O=C(NC(=O)c1c(F)cccc1F)Nc1ccc(S(=O)(=O)C(F)(F)C(F)F)cc1F` yielded a mortality at 2 ppm (Spodoptera litura [1]) of 100%, a mortality at 2 ppm (Spodoptera litura [2]) of 100% and a mortality at 3.3 ppm (Plutella xylostella [3]) of 100%. For the same compound, the mortality at 5 ppm (Adoxophyes orana [4]) was 100%.
With `O=C(NC(=O)c1c(F)cccc1F)Nc1ccc(SC(F)(F)C(F)F)cc1Cl` the mortality at 2 ppm (Spodoptera litura [1]) was 100%, the mortality at 2 ppm (Spodoptera litura [2]) was 100% and the mortality at 3.3 ppm (Plutella xylostella [3]) was 100%. The mortality at 5 ppm (Adoxophyes orana [4]) was 100%.
For `O=C(NC(=O)c1c(F)cccc1F)Nc1ccc(SC(F)(F)C(F)F)c(Cl)c1`, the mortality at 2 ppm (Spodoptera litura [1]) was 100%, the mortality at 2 ppm (Spodoptera litura [2]) was 100% and the mortality at 3.3 ppm (Plutella xylostella [3]) was 100%. For the same compound, the mortality at 20 ppm (Adoxophyes orana [5]) was 65%.
With `O=C(NC(=O)c1c(F)cccc1F)Nc1ccc(Cl)cc1` [DIFLUBENZURON] the mortality at 2 ppm (Spodoptera litura [1]) was 20%, the mortality at 2 ppm (Spodoptera litura [2]) was 15% and the mortality at 20 ppm (Adoxophyes orana [5]) was 20%. For the same compound, the mortality at 50 ppm (Plutella xylostella [6]) was 20%.
